Experimental findings from PubChem BioAssay (NCI) are described below.

Where “and” joins values, the source holds several entries; their conditions need not be identical. Identical values can stand only once.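 48-hour exposure; five concentrations; linearly interpolated endpoints. At the GI50, growth is halved. At the TGI there is no net growth.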

Assay in all cases: inhibition of tumour cell growth, NCI panel, 48 h
Assay [1] deals with A498 renal.
Assay [2] concerns A549 NSCLC.
Assay [3] deals with ACHN renal.
Assay [4] deals with MCF7 breast.
Assay [5] deals with OVCAR-8 ovarian.
Assay [6] deals with TK-10 renal.
The test system of assay [7] is U251 CNS.
The subject of assay [8] is UACC-62 melanoma.
The subject of assay [9] is UO-31 renal.
The subject of assay [10] is SR leukemia.

For `O=C(Oc1ccccc1)c1cc(O)c(O)c(O)c1`, the GI50 in [1] is 5 µM; in [2], 9.64 µM; in assay [3] it was 9.72 µM; in [4] it was 24.7 µM; in assay [5], 9.82 µM; in assay [6], 29.1 µM. For the same compound, the GI50 is 10.7 µM in [7], 8.45 µM in assay [8] and 2.93 µM in assay [9]. Also, the TGI is 76.1 µM in assay [1]; over 100 µM in [2]; over 100 µM in assay [3]; over 100 µM in [4]; over 100 µM in [5]; over 100 µM in [6]. In addition, the TGI in assay [7] was over 100 µM; in [8] it was 56.4 µM; in [9], over 100 µM.

On to `CCCCCC(=O)N1c2ccccc2NC2=C(C(=O)CC(c3ccc(OC)c(OC)c3)C2)C1c1ccc(C(F)(F)F)cc1` (stereo unspecified), for which the GI50 in [2] is over 100 µM; in [3], over 100 µM; in [4] it was 24.3 µM; in assay [5], over 100 µM; in [10] it was over 100 µM; in assay [6], over 100 µM. Also, the GI50 in [7] is over 100 µM; in assay [8] it was 97.1 µM; in [9] it was 42.5 µM. Also, the TGI in [2], in assay [3], in [4], in assay [5], in [10] and in assay [6] was over 100 µM each time. Also, the TGI in [7], in assay [8] and in assay [9] was over 100 µM in each case.

For the compound `CC1CCC2(OC1)OC1CC3C4CC=C5CC(OC6OC(CO)C(OC7OC(C)C(OC8OC(C)C(O)C(O)C8O)C(O)C7O)C(O)C6OC6OC(C)C(O)C(O)C6O)CCC5(C)C4CCC3(C)C1C2C` (stereo unspecified), the TGI in assay [1] is 1.55 µM; in [2] it was 1.39 µM; in [3], 2.79 µM; in assay [4] it was 3.25 µM; in assay [5] it was 1.59 µM; in assay [6] it was 2.68 µM. Also, the TGI in assay [7] turned out to be 1.96 µM; in assay [8], 1.51 µM; in assay [9] it was 1.67 µM.

For the compound `CCCCCCCCCCCCCCCCC(C(=O)O)C(O)(CC(=O)O)C(=O)O` (stereo unspecified), the TGI in assay [1] was 47.6 µM; in assay [3], over 100 µM; in assay [4] it was over 100 µM; in assay [5] it was over 100 µM; in assay [10] it was 81 µM; in assay [6], over 100 µM. The TGI is 33.1 µM in assay [7], 48.9 µM in assay [8] and 45.4 µM in assay [9].

For the compound `Clc1nc(Cl)c2ncn(C/C=C\Cn3cnc4c(Cl)nc(Cl)nc43)c2n1`, the GI50 in assay [1] was 1.51 µM; in assay [2], 3.67 µM; in [3], 1.97 µM; in [4], 1.39 µM; in [5], 2.02 µM; in assay [6], 3.83 µM. For the same compound, the GI50 in assay [7] is 3.5 µM; in [8], 2.04 µM; in assay [9] it was 3.38 µM. Also, the TGI in [1] stood at 3.23 µM; in assay [2] it was 39.4 µM; in assay [3], 3.46 µM; in assay [4] it was 3.21 µM; in assay [5] it was 6.39 µM; in [6] it was 13.5 µM. Further, the results for the TGI in assay [7], in assay [8] and in [9] were 10.6 µM, 4.19 µM and 10.3 µM, respectively.

In the case of `Nc1nc(-n2cccn2)nc(-n2cccn2)c1Br`, the GI50 is 9.7 µM in assay [1]; over 100 µM in [2]; over 100 µM in assay [3]; over 100 µM in assay [4]; over 100 µM in assay [5]; over 100 µM in [10]. The GI50 in [7], in assay [8] and in [9] was over 100 µM each time. The TGI was 92.6 µM in [1]; over 100 µM in assay [2]; over 100 µM in [3]; over 100 µM in assay [4]; over 100 µM in assay [5]; over 100 µM in assay [10]. Besides, the TGI in assay [7], in assay [8] and in assay [9] was over 100 µM throughout.

`OCCN(CO)CN(CN(CO)CCO)c1nc(N(CN(CO)CCO)CN(CO)CCO)nc(N(CN(CO)CCO)CN(CO)CCO)n1`: the GI50 was 1.81 ng/mL in [2]; 1.73 ng/mL in assay [3]; 0.55 ng/mL in assay [4]; 1.54 ng/mL in assay [5]; 0.742 ng/mL in assay [10]; 1.26 ng/mL in assay [8]. Further, the TGI was found to be 131 ng/mL in assay [2]; 6.27 ng/mL in [3]; 0.901 ng/mL in assay [4]; 5500 ng/mL in assay [5]; 2.62 ng/mL in [10]; 3.02 ng/mL in [8].

As for `CCCCCCC(C)CC(CCCCCC)NCCOC(=O)c1ccc([N+](=O)[O-])cc1` (stereo unspecified), the TGI is 34 µM and 34.8 µM in assay [1]; 30.3 µM and 29.8 µM in assay [2]; 30.5 µM and 28.1 µM in assay [3]; 28.3 µM and 21 µM in assay [4]; 22.1 µM and 19.7 µM in assay [5]; 24.5 µM and 23.4 µM in assay [6]. The TGI was 29.2 µM and 25.2 µM in assay [7]; 28.7 µM and 26.6 µM in [8]; 23.8 µM and 22.2 µM in [9].

On to `COc1ccc(-c2ccc(/C=N/n3cn[nH]c3=S)o2)c([N+](=O)[O-])c1`, for which the GI50 was 1.35 µM in assay [1]; 36.2 µM in assay [2]; 50.7 µM in assay [3]; 25.4 µM in [4]; 38.2 µM in assay [5]; 18 µM in [6]. Also, the figures for the GI50 in assay [8] and in [9] were 41.1 µM and 54.4 µM, respectively. Also, the TGI in assay [1] was 10.3 µM; in [2], over 100 µM; in [3] it was over 100 µM; in [4] it was 89.1 µM; in assay [5], over 100 µM; in assay [6] it was 86.6 µM. In addition, the TGI in assay [8] and in assay [9] was over 100 µM in each case.

On to `COc1cc2c(/C=C3/C(=O)Nc4ccccc43)c(Cl)n(Cc3ccccc3)c2cc1C`, for which the GI50 in assay [1], in [2], in assay [3], in [4], in [5] and in assay [6] was over 100 µM in each case. Moreover, the GI50 in assay [7] is over 100 µM; in assay [8] it was over 100 µM; in assay [9] it was 83.4 µM. Further, the TGI in assay [1], in assay [2], in [3], in assay [4], in assay [5] and in assay [6] was over 100 µM in each case. Further, the TGI in assay [7], in assay [8] and in [9] was over 100 µM throughout.

Take `C[C@]12CC[C@H]3[C@@H](CC=C4C[C@@H](O)CC[C@@]43C)[C@@H]1C/C(=C\c1cccc(OCCN3CCOCC3)c1)[C@@H]2O`: the GI50 in [1], in assay [2], in assay [3], in assay [4], in assay [5] and in assay [6] was over 100 µM throughout. The GI50 in assay [7] was over 100 µM; in assay [8], over 100 µM; in assay [9], 33.5 µM. Besides, the TGI in [1], in assay [2], in assay [3], in [4], in [5] and in assay [6] was over 100 µM throughout. The TGI in assay [7], in [8] and in assay [9] was over 100 µM each time.

Regarding `O=c1c2cc(Br)ccc2oc2ccc(Br)cc12`, the TGI in [1], in assay [2], in [3], in assay [4], in assay [5] and in assay [6] was over 100 µM in each case. The TGI in [7], in assay [8] and in [9] was over 100 µM each time.

In the case of `COc1ccc(Cl)cc1N1C(=O)C(Cl)=C(Nc2cccc(O)c2)C1=O`, the GI50 was 20.1 µM in assay [2]; 16.9 µM in assay [3]; 19.2 µM in assay [4]; 15.1 µM in [5]; 13.8 µM in [10]; 11.3 µM in assay [6]. Besides, the GI50 in assay [7] was 17.5 µM; in assay [8] it was 12.3 µM; in assay [9] it was 13.2 µM. For the same compound, the TGI in assay [2] was found to be 59.2 µM; in assay [3], 48.6 µM; in assay [4], 41.5 µM; in assay [5], 31.2 µM; in [10] it was 54.5 µM; in [6] it was 31.9 µM. Further, the results for the TGI in [7], in assay [8] and in assay [9] were 48 µM, 27.9 µM and 26.6 µM, respectively.

`CCCCCCn1c(-c2ccc(C(=O)O/N=C(\N)c3ccc(OC)cc3)cc2)nc(-c2ccccc2)c1-c1ccccc1`: the GI50 in assay [2] was 0.777 µM; in [3], 0.354 µM; in assay [4], 1.61 µM; in assay [5], 2.21 µM; in assay [10], 0.196 µM; in assay [6] it was 1.72 µM. In addition, the results for the GI50 in assay [7] and in assay [9] were 1.62 µM and 0.413 µM, respectively. The TGI in [2] was determined as 3.36 µM; in [3] it was 1.23 µM; in assay [4], 3.72 µM; in assay [5], 6.47 µM; in [10], 0.528 µM; in [6], 3.31 µM. The TGI came out at 4.21 µM in assay [7] and 1.48 µM in [9].

In the case of `N#C/C(=C\c1cn(-c2ccccc2)c2ccccc12)C(=O)O`, the GI50 is 13.4 µM in assay [1]; 42.9 µM in [2]; 44 µM in assay [3]; 27.4 µM in assay [4]; 44.6 µM in assay [5]; 68.8 µM in assay [10]. Further, the GI50 in assay [7] was 35 µM; in [8] it was 23.8 µM; in [9], 23.8 µM. Moreover, the TGI in [1] was 35 µM; in assay [2], over 100 µM; in assay [3], over 100 µM; in assay [4] it was over 100 µM; in assay [5] it was over 100 µM; in assay [10], over 100 µM. Moreover, the TGI in [7] was over 100 µM; in [8] it was 85.6 µM; in assay [9], over 100 µM.

Consider `CCCCCCN1C(=O)/C(=c2\sc3n(c2=O)C2C(NN=3)N(CC)C(=O)N2CC)c2ccccc21` (stereo unspecified), for which the GI50 was 0.706 µM in assay [1]; 1.47 µM in assay [2]; 1.51 µM in assay [3]; 1.73 µM in assay [4]; 1.47 µM in [5]; 1.73 µM in [10]. The GI50 in assay [6] is 1.72 µM; in [8], 2.89 µM; in assay [9], 1.43 µM. In addition, the TGI is 2.37 µM in assay [1]; over 50 µM in [2]; over 50 µM in assay [3]; over 50 µM in assay [4]; over 50 µM in assay [5]; over 50 µM in assay [10]. For the same compound, the TGI in assay [6], in assay [8] and in assay [9] was over 50 µM throughout.

For `N#Cc1nc(-c2cccc(Br)c2)cc(-c2ccc(Nc3nc(N4CCCCC4)nc(N4CCCCC4)n3)cc2)c1N`, the GI50 in assay [2] is 3.68 µM; in assay [3], 1.72 µM; in assay [4], 1.03 µM; in [5], 2.66 µM; in [10], 1.29 µM; in assay [6], 1.8 µM. Further, the GI50 in assay [7] is 1.72 µM; in assay [8], 1.5 µM; in [9] it was 1.68 µM. The TGI in assay [2] is over 100 µM; in [3] it was 3.3 µM; in assay [4], 54.4 µM; in assay [5], over 100 µM; in [10], over 100 µM; in assay [6], 3.47 µM. Also, the TGI in assay [7] was 3.38 µM; in assay [8] it was 3.27 µM; in assay [9] it was 5.47 µM.

In the case of `CSC(=S)N(C)c1nc(=[N+](C)C)ss1`, the TGI in assay [1], in [2], in [3], in assay [5], in assay [10] and in assay [6] was over 100 µM throughout. Moreover, the TGI in assay [7], in assay [8] and in assay [9] was over 100 µM each time.

Turning to `CC1(C)CCSC(/C=C/c2ccccc2)=N1`, the TGI in assay [1] was 36.4 µM; in assay [2], over 100 µM; in assay [3], 38.8 µM; in assay [4], 27.6 µM; in assay [5], 29.8 µM; in assay [6], 32.6 µM. In addition, the TGI in assay [7] is 34.3 µM.
